Values of other authors as cited in US11318148B2, “Preservative-free treprostinil devices” (SteadyMed, Ltd., priority 2014, dated 2022).

How the values were obtained:
[1] = in vivo
[2] = has to be kept on ice during administration

half-life [1]: 3 to 5 min
stability at room temperature [2]: unstable at room temperature
Compound: CCCCC[C@H](O)/C=C/[C@@H]1[C@H]2C/C(=C/CCCC(=O)O)O[C@H]2C[C@H]1O [Flolan]
